Measurements reported in DBAASP.
Converted amounts (≈) assume the structure as drawn. “And” between values parts separate entries of the source, which are not always exact repeats. Equal values may be shown once.

Key:
Test in all cases: ≥ marks a high value that may be exact or a test limit, other limits are often not marked, values filed in µg/mL are converted to µM
[1] = tested on: Escherichia coli ATCC 25922
Escherichia coli = tested on: Escherichia coli
Staphylococcus aureus = tested on: Staphylococcus aureus
[2] = tested on: Staphylococcus aureus ATCC 25923
[3] = tested on: Pseudomonas aeruginosa ATCC 27853

| MIC [1] | MIC [2] [µM] | SMILES | further results |
| --- | --- | --- | --- |
| 15.2 µM (≈ 16 µg/mL) | – | CC(C)C[C@H](NC(=O)[C@H](CCC(N)=O)NC(=O)[C@H](CCCN=C(N)N)NC(=O)[C@H](CCCN=C(N)N)NC(=O)[C@@H]1CCCN1C(=O)[C@H](C)N)C(=O)N[C@@H](CCCCN)C(=O)N[C@@H](Cc1c[nH]c2ccccc12)C(=O)O [APRRQLKW] | – |
| – | – | CSCC[C@@H]1NC(=O)[C@H](CC(C)C)NC(=O)[C@H](CCCN=C(N)N)NC(=O)[C@H](CO)NC(=O)[C@@H]2CSSC[C@@H]3NC(=O)[C@H](CO)NC(=O)CNC(=O)[C@H]([C@@H](C)O)NC(=O)[C@H](CSSC[C@H](N)C(=O)N[C@@H](CCCCN)C(=O)NCC(=O)N[C@@H](CCCCN)C(=O)NCC(=O)N[C@@H](C)C(=O)N[C@@H](CCCCN)C(=O)N2)NC(=O)[C@H](CSSC[C@@H](C(=O)NCC(=O)N[C@@H](CO)C(=O)O)NC(=O)[C@H](CCCCN)NC(=O)CNC(=O)[C@H](CO)NC(=O)[C@H](CCCN=C(N)N)NC3=O)NC(=O)[C@H](CC(=O)O)NC(=O)[C@H](Cc2ccc(O)cc2)NC1=O [CKGKGAKCSRLMYDCCTGSCRSGKCGS] | MIC (Escherichia coli): > 500 µM; MIC (Staphylococcus aureus): > 500 µM |
| 4.38 µM (≈ 6.99 µg/mL) | 7.59 (≈ 12.1 µg/mL) | CC(C)[C@H](NC(=O)[C@H](CCCCN)NC(=O)[C@@H](N)Cc1ccccc1)C(=O)N[C@H](C(=O)N[C@@H](Cc1c[nH]c2ccccc12)C(=O)N[C@@H](CCCCN)C(=O)N[C@H](C(=O)N[C@@H](CCCCN)C(=O)N[C@@H](Cc1c[nH]c2ccccc12)C(=O)N[C@@H](Cc1c[nH]c2ccccc12)C(=O)N[C@@H](CCCCN)C(=O)NCC(N)=O)[C@@H](C)O)[C@@H](C)O [FKVTWKTKWWKG] | – |
| – | – | CC[C@H](C)[C@H](NC(=O)[C@H](CCCCN)NC(=O)[C@H](CC(C)C)NC(=O)[C@H](C)NC(=O)[C@H](C)NC(=O)[C@H](CCCCN)NC(=O)[C@H](CC(C)C)NC(=O)[C@H](C)NC(=O)[C@H](CCCCN)NC(=O)CNC(=O)[C@H](CC(C)C)NC(=O)[C@H](Cc1ccccc1)NC(=O)[C@H](CO)NC(=O)CNC(=O)[C@H](Cc1ccccc1)NC(=O)CN)C(=O)NCC(=O)N[C@@H](C)C(=O)N[C@@H](CC(=O)O)C(=O)N[C@H](C(=O)N[C@@H](CC(C)C)C(=O)NCC(=O)NCC(=O)N[C@@H](C)C(=O)N1CCC[C@H]1C(=O)N[C@@H](CCC(N)=O)C(=O)N[C@@H](CCC(N)=O)C(=O)O)C(C)C [GFGSFLGKALKAALKIGADVLGGAPQQ] | MIC (Escherichia coli): > 50 µM; MIC (Staphylococcus aureus): 25 µM (≈ 65.4 µg/mL) |
| 5 µM (≈ 10 µg/mL) | 18.8 (≈ 37.6 µg/mL) | CC(C)C[C@H](NC(=O)[C@H](C)NC(=O)[C@H](CCCCN)NC(=O)[C@H](C)NC(=O)[C@H](C)NC(=O)CNC(=O)[C@H](CCCCN)NC(=O)[C@H](CC(C)C)NC(=O)[C@H](CC(C)C)NC(=O)[C@H](CC(=O)O)NC(=O)[C@H](CCCCN)NC(=O)[C@H](Cc1ccccc1)NC(=O)CN)C(=O)N[C@H](C(=O)N[C@@H](CCCCN)C(=O)N[C@H](C(=O)N[C@H](C(=O)N[C@@H](CC(C)C)C(=O)N[C@@H](CCCCN)C(N)=O)C(C)C)[C@@H](C)O)C(C)C [GFKDLLKGAAKALVKTVLK] | – |
| 25 µM (≈ 73 µg/mL) | – | CC[C@H](C)[C@H](NC(=O)CN)C(=O)N[C@@H](CCSC)C(=O)N[C@@H](CC(=O)O)C(=O)N[C@@H](CO)C(=O)N[C@H](C(=O)N[C@@H](CCCCN)C(=O)N[C@@H](CC(N)=O)C(=O)N[C@@H](C)C(=O)N[C@@H](C)C(=O)N[C@@H](CCCCN)C(=O)N[C@@H](CC(N)=O)C(=O)N[C@@H](CC(C)C)C(=O)N[C@@H](C)C(=O)NCC(=O)N[C@@H](CCC(N)=O)C(=O)N[C@@H](CC(C)C)C(=O)N[C@@H](CC(C)C)C(=O)N[C@@H](CC(=O)O)C(=O)N[C@H](C(=O)N[C@H](C(=O)N[C@@H](CCCCN)C(=O)N[C@H]1CSSC[C@@H](C(=O)O)NC(=O)[C@H](C)NC(=O)[C@H]([C@@H](C)O)NC(=O)[C@H]([C@@H](C)CC)NC(=O)[C@H](CCCCN)NC1=O)[C@@H](C)CC)[C@@H](C)O)C(C)C [GIMDSVKNAAKNLAGQLLDTIKCKITAC] | – |
| > 34.2 µM | > 34.2 | CC[C@H](C)[C@H](NC(=O)[C@H](CCCN=C(N)N)NC(=O)[C@H](CCCCN)NC(=O)[C@H](C)NC(=O)[C@H](CC(C)C)NC(=O)CN)C(=O)N[C@@H](CCCCN)C(=O)N[C@H](C(=O)N[C@@H](CC(C)C)C(=O)N[C@@H](CC(C)C)C(N)=O)[C@@H](C)O [GLAKRIKTLL] | – |
| 1.8 µM (≈ 2 µg/mL) | 1.8 (≈ 2 µg/mL) | CC[C@H](C)[C@H](NC(=O)[C@H](CC(C)C)NC(=O)[C@H](CCCCN)NC(=O)[C@H](CC(C)C)NC(=O)[C@H](CC(C)C)NC(=O)CN)C(=O)N[C@@H](CCCCN)C(=O)N[C@H](C(=O)N[C@@H](CC(C)C)C(=O)N[C@@H](CC(C)C)C(N)=O)[C@@H](C)O [GLLKLIKTLL] | – |
| 7.72 µM (≈ 8.99 µg/mL) | 12 (≈ 14 µg/mL) | CC[C@H](C)[C@H](NC(=O)[C@H](CCCCN)NC(=O)[C@@H](NC(=O)[C@H](CCCN=C(N)N)NC(=O)[C@H](CCCCN)NC(=O)[C@H](CC(C)C)NC(=O)[C@H](CC(C)C)NC(=O)CN)[C@@H](C)CC)C(=O)N[C@@H](CC(C)C)C(=O)N[C@@H](CC(C)C)C(N)=O [GLLKRIKILL] | – |
| 100 µM (≈ 114 µg/mL) | – | CC[C@H](C)[C@H](NC(=O)[C@H](CCCN=C(N)N)NC(=O)[C@H](CCCCN)NC(=O)[C@H](CC(C)C)NC(=O)[C@H](CC(C)C)NC(=O)CN)C(=O)N[C@@H](CCCCN)C(=O)N[C@@H](CO)C(=O)N[C@@H](CC(C)C)C(=O)N[C@@H](CC(C)C)C(N)=O [GLLKRIKSLL] | – |
| > 43.1 µM | > 43.1 | CC[C@H](C)[C@H](NC(=O)[C@H](CCCN=C(N)N)NC(=O)[C@H](CCCCN)NC(=O)[C@H](CC(C)C)NC(=O)[C@H](CC(C)C)NC(=O)CN)C(=O)N[C@@H](CCCCN)C(=O)N[C@H](C(=O)N[C@@H](CC(C)C)C(=O)N[C@@H](C)C(N)=O)[C@@H](C)O [GLLKRIKTLA] | – |
| > 200 µM | – | CC[C@H](C)[C@H](NC(=O)[C@H](CCCN=C(N)N)NC(=O)[C@H](CCCCN)NC(=O)[C@H](CC(C)C)NC(=O)[C@H](CCSC)NC(=O)CN)C(=O)N[C@@H](CCCCN)C(=O)N[C@H](C(=O)N[C@@H](CC(C)C)C(=O)N[C@@H](CCSC)C(N)=O)[C@@H](C)O [GMLKRIKTLM] | – |
| – | – | CC[C@H](C)[C@H](N)C(=O)NCC(=O)N[C@@H](CCCCN)C(=O)N[C@@H](CC(C)C)C(=O)N1CCC[C@H]1C(=O)N[C@@H](CCCCN)C(=O)N[C@@H](Cc1c[nH]c2ccccc12)C(=O)N[C@H](C(=O)N[C@H](C(=O)N[C@@H](CCCCN)C(=O)N[C@H](C(=O)N[C@H](C(=O)N[C@@H](CC(N)=O)C(=O)N[C@@H](CCCCN)C(=O)N[C@@H](Cc1ccccc1)C(=O)N[C@H](C(=O)N[C@@H](CCCCN)C(=O)N[C@@H](CCCCN)C(=O)O)[C@@H](C)O)C(C)C)[C@@H](C)O)[C@@H](C)CC)[C@@H](C)CC [IGKLPKWIIKTVNKFTKK] | MIC (Escherichia coli): 2.1 µM (≈ 4.5 µg/mL) |
| 4 µM (≈ 9.1 µg/mL) | 8 (≈ 18.2 µg/mL) | CC(C)C[C@H](NC(=O)[C@H](C)NC(=O)[C@H](CCCCN)NC(=O)[C@H](CC(C)C)NC(=O)[C@H](C)NC(=O)[C@H](CCCCN)NC(=O)[C@H](CCCCN)NC(=O)[C@H](CC(C)C)NC(=O)[C@H](C)NC(=O)[C@H](CCCCN)NC(=O)[C@H](CC(C)C)NC(=O)[C@H](C)NC(=O)[C@H](CCCCN)NC(=O)[C@H](CCCCN)NC(=O)[C@H](CC(C)C)NC(=O)[C@H](C)NC(=O)[C@H](CCCCN)NC(=O)[C@H](CC(C)C)NC(=O)[C@H](C)NC(=O)[C@@H](N)CCCCN)C(=O)N[C@@H](CCCCN)C(N)=O [KALKALKKALKALKKALKALK] | MIC [3]: 4 µM (≈ 9.1 µg/mL) |
| 2.64 µM and 5.27 µM | – | CC[C@H](C)[C@H](NC(=O)[C@H](CCCCN)NC(=O)[C@H](CCCN=C(N)N)NC(=O)[C@H](CC(C)C)NC(=O)[C@H](CCCN=C(N)N)NC(=O)[C@H](CO)NC(=O)[C@H](Cc1c[nH]c2ccccc12)NC(=O)[C@@H](NC(=O)[C@@H](N)CCCCN)C(C)C)C(=O)N[C@@H](Cc1ccccc1)C(=O)N[C@@H](CO)C(=O)N[C@H](C(=O)N[C@@H](CCCN=C(N)N)C(N)=O)[C@@H](C)O [KVWSRLRKIFSTR] | – |
| 90.5 µM (≈ 151 µg/mL) | – | CC(C)C[C@H](NC(=O)[C@H](Cc1ccccc1)NC(=O)[C@@H]1CCCN1C(=O)[C@H](C)NC(=O)[C@H](Cc1c[nH]c2ccccc12)NC(=O)[C@H](C)NC(=O)[C@@H]1CCCN1C(=O)[C@H](Cc1ccccc1)NC(=O)[C@H](CCCN=C(N)N)NC(=O)[C@H](CCCN=C(N)N)NC(=O)[C@@H](N)C(C)C)C(=O)N[C@@H](CCCN=C(N)N)C(=O)N[C@@H](CCCN=C(N)N)C(N)=O [VRRFPAWAPFLRR] | – |
| 90.5 µM (≈ 151 µg/mL) | – | CC(C)C[C@H](NC(=O)[C@H](Cc1ccccc1)NC(=O)[C@@H]1CCCN1C(=O)[C@H](C)NC(=O)[C@H](C)NC(=O)[C@H](Cc1c[nH]c2ccccc12)NC(=O)[C@@H]1CCCN1C(=O)[C@H](Cc1ccccc1)NC(=O)[C@H](CCCN=C(N)N)NC(=O)[C@H](CCCN=C(N)N)NC(=O)[C@@H](N)C(C)C)C(=O)N[C@@H](CCCN=C(N)N)C(=O)N[C@@H](CCCN=C(N)N)C(N)=O [VRRFPWAAPFLRR] | – |
| 64 µM (≈ 108 µg/mL) | > 100 | CC(C)[C@H](NC(=O)[C@H](CC(=O)O)NC(=O)[C@H](CO)NC(=O)[C@H](CCCCN)NC(=O)[C@@H](N)Cc1c[nH]c2ccccc12)C(=O)N[C@@H](CCCN=C(N)N)C(=O)N[C@@H](CCCN=C(N)N)C(=O)N[C@@H](Cc1c[nH]c2ccccc12)C(=O)N[C@@H](CCCN=C(N)N)C(=O)N[C@@H](CO)C(=O)N[C@@H](CCCN=C(N)N)C(=O)N[C@@H](Cc1ccc(O)cc1)C(N)=O [WKSDVRRWRSRY] | MIC [3]: > 100 µM |
| 64 µM (≈ 85.5 µg/mL) | 64 (≈ 85.5 µg/mL) | CC(C)[C@H](NC(=O)[C@H](Cc1ccc(O)cc1)NC(=O)[C@H](CO)NC(=O)[C@H](CCCCN)NC(=O)[C@@H](N)Cc1c[nH]c2ccccc12)C(=O)N[C@@H](CCCN=C(N)N)C(=O)N[C@@H](CCCN=C(N)N)C(=O)N[C@@H](Cc1c[nH]c2ccccc12)C(=O)N[C@@H](CCCN=C(N)N)C(N)=O [WKSYVRRWR] | MIC [3]: > 100 µM |
